Data taken from publication PMC10362908 (2023).

Tests used:
Settings in all cases: Na+ 10 mM; Mg2+ carried over from 12 mM annealing buffer; 5 mM TRIS pH 7.0, 20 °C; 0.5 µM DNA, 160 µM PIC; super aggregate
[1] = test system: AT + AF (DX-tile) (DNA, junction, amino modifier C6 dT at 19 of strand 5) TCAGAAGAACAAAAAAAAAA/ACGCATTTGTCGTTCTTCTGATGACCTTGCA/GTACACCTCGCTTTTTTTTTTGTGTCTGCAA/TTGCAGACACGACAAATGCGT/TGCAAGGTCCGCGAGGTGTAC; assay: absorbance (580 nm aggregate peak, AF red shift)
[2] = test system: GC + AF (DX-tile) (DNA, junction, amino modifier C6 dT at 19 of strand 5) TCAGAAGAACGCGCGCGCGC/ACGCATTTGTCGTTCTTCTGATGACCTTGCA/GTACACCTCGAGCGCGCGCGCTTGTCTGCAA/TTGCAGACAAGACAAATGCGT/TGCAAGGTCCGCGAGGTGTAC; assay: absorbance (580 nm aggregate peak, AF red shift)
[3] = test system: dsDNA + AF (DNA, duplex, amino modifier C6 dT at 19 of strand 1) TGCAAGGTCCGCGAGGTGTAC/GTACACCTCGCGGACCTTGCA; assay: absorbance (580 nm aggregate peak, AF red shift)
[4] = test system: ssDNA + AF (Strand 5-AF) (DNA, single strand, amino modifier C6 dT at 19) TGCAAGGTCCGCGAGGTGTAC; assay: absorbance (580 nm aggregate peak, AF red shift)
[5] = test system: AT (DX-tile) (DNA, junction) TCAGAAGAACAAAAAAAAAA/ACGCATTTGTCGTTCTTCTGATGACCTTGCA/GTACACCTCGCTTTTTTTTTTGTGTCTGCAA/TTGCAGACACGACAAATGCGT/TGCAAGGTCCGCGAGGTGTAC; assay: fluorescence emission (523 nm excitation), aggregate formation
[6] = test system: GC (DX-tile) (DNA, junction) TCAGAAGAACGCGCGCGCGC/ACGCATTTGTCGTTCTTCTGATGACCTTGCA/GTACACCTCGAGCGCGCGCGCTTGTCTGCAA/TTGCAGACAAGACAAATGCGT/TGCAAGGTCCGCGAGGTGTAC; assay: as above
[7] = test system: dsDNA (DNA, duplex) TGCAAGGTCCGCGAGGTGTAC/GTACACCTCGCGGACCTTGCA; assay: as above
[8] = test system: ssDNA (DNA, single strand) TGCAAGGTCCGCGAGGTGTAC; assay: as above

Measured: binding

CCN1C(=Cc2ccc3ccccc3[n+]2CC)C=Cc2ccccc21
yes: all assays above
